# In publication PMC11864979, “First-in-class ultralong-target-residence-time p38α inhibitors as a mitosis-targeted therapy for colorectal cancer” (Nature Cancer, 2025):
# Read-outs that look alike come from different tables or passages of the source.
# Tests used:
# Assay in all cases: selectivity profiling in a panel of 340 wild-type kinases (Reaction Biology Europe)
# Format in all cases: binding
# [1] = target: T1, 340 wild-type kinases (Homo sapiens, UniProt O15111)
# T1 construct: purchased Reaction Biology Europe
# T1 sequence (O15111 1-745): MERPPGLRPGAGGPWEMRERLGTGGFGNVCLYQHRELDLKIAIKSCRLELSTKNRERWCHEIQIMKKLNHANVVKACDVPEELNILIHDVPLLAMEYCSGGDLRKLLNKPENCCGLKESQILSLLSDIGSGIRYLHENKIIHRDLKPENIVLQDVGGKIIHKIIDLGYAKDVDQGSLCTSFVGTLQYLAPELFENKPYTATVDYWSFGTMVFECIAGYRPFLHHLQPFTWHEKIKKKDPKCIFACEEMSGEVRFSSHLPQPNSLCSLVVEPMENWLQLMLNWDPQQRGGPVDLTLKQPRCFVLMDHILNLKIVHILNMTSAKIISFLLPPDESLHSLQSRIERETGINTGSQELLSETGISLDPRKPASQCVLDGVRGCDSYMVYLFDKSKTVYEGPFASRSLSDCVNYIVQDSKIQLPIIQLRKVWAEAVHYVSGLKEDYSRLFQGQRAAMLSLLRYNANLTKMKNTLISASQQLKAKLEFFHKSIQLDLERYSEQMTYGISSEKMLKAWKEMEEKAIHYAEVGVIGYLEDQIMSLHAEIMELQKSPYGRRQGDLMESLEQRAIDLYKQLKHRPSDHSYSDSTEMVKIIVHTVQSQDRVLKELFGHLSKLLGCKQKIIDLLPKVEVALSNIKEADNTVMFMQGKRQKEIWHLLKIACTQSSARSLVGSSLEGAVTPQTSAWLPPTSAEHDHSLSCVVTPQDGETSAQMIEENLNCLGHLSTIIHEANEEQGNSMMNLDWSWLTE
# [2] = target: T2, 340 wild-type kinases (Homo sapiens, UniProt Q8TDX7)
# T2 construct: purchased Reaction Biology Europe
# [3] = target: T3, 340 wild-type kinases (Homo sapiens, UniProt P37173)
# T3 construct: purchased Reaction Biology Europe
# [4] = target: T4, 340 wild-type kinases (Homo sapiens, UniProt Q00535)
# T4 construct: purchased Reaction Biology Europe
# [5] = target: T5, 340 wild-type kinases (Homo sapiens, UniProt Q02763)
# T5 construct: purchased Reaction Biology Europe
# [6] = target: T6, 340 wild-type kinases (Homo sapiens, UniProt Q7KZI7)
# T6 construct: purchased Reaction Biology Europe
# [7] = target: T7, 340 wild-type kinases (Homo sapiens, UniProt Q16288)
# T7 construct: purchased Reaction Biology Europe
# [8] = target: T8, 340 wild-type kinases (Homo sapiens, UniProt Q9H4A3)
# T8 construct: purchased Reaction Biology Europe
# [9] = target: T9, 340 wild-type kinases (Homo sapiens, UniProt Q9P289)
# T9 construct: purchased Reaction Biology Europe
# [10] = target: T10, 340 wild-type kinases (Homo sapiens, UniProt P51813)
# T10 construct: purchased Reaction Biology Europe
# T10 sequence (P51813 1-675): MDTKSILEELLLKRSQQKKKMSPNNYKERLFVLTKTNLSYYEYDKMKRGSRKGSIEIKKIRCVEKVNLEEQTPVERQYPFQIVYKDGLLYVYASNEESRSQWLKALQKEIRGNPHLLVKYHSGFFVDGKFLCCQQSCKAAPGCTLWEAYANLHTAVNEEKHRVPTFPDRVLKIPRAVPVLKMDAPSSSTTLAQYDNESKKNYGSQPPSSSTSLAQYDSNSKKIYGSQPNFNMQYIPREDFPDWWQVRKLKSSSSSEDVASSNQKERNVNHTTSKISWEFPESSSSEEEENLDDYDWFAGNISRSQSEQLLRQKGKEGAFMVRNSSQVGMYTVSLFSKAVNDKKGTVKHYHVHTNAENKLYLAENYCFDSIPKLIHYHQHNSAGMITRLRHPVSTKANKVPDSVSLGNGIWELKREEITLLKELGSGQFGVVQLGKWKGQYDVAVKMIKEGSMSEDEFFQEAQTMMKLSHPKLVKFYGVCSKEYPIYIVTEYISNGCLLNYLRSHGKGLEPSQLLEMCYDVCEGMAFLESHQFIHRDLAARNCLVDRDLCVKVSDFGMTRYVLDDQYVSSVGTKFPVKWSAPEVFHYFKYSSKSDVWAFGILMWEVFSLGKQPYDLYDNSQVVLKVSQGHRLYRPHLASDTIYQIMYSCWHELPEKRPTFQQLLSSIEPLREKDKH
# T5 sequence (Q02763 23-1124): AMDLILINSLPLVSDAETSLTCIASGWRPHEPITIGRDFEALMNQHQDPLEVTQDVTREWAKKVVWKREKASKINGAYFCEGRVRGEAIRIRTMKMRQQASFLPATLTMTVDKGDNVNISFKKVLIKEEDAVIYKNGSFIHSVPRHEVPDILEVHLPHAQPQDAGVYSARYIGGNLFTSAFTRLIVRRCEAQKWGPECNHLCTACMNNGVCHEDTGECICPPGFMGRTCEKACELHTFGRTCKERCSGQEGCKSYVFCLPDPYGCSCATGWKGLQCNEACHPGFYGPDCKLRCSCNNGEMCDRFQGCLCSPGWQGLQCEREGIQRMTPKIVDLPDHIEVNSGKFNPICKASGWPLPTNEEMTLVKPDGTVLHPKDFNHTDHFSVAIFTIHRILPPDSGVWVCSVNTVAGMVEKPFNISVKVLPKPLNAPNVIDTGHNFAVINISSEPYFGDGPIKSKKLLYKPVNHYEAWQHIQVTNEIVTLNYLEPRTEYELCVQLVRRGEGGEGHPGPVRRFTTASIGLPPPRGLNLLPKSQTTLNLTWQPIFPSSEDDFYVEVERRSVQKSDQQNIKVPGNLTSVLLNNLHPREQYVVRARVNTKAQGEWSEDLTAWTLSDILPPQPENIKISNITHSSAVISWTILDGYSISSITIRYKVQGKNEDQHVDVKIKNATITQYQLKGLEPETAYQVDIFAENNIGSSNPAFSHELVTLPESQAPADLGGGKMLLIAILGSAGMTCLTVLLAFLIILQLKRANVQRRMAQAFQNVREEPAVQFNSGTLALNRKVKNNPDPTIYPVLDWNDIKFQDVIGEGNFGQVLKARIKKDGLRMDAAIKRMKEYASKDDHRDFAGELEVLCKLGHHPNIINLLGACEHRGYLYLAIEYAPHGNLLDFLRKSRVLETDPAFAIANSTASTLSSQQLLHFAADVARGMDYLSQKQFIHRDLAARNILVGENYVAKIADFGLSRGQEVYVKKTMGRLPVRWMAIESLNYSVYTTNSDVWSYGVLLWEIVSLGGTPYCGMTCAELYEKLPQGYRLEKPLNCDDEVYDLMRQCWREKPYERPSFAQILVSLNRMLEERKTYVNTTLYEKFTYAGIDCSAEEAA
# T9 sequence (Q9P289 whole entry): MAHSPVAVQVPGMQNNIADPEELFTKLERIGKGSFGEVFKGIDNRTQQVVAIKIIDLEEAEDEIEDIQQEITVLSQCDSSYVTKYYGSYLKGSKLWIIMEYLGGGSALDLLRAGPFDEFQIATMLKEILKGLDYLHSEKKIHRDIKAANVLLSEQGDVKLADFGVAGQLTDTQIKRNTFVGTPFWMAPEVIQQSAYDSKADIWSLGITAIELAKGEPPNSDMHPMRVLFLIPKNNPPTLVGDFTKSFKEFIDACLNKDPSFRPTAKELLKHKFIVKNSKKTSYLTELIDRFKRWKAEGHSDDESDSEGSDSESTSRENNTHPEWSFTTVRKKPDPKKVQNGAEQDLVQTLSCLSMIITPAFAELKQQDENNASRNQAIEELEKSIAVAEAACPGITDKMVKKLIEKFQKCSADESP
# T4 sequence (Q00535 whole entry): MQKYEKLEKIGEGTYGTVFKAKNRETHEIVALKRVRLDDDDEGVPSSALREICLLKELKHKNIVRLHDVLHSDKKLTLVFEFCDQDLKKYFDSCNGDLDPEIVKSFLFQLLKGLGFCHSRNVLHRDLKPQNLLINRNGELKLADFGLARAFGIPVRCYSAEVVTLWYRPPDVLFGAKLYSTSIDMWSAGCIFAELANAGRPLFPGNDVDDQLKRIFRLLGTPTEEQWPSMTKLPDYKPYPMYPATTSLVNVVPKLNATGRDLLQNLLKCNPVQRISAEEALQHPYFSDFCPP
# T2 sequence (Q8TDX7 whole entry): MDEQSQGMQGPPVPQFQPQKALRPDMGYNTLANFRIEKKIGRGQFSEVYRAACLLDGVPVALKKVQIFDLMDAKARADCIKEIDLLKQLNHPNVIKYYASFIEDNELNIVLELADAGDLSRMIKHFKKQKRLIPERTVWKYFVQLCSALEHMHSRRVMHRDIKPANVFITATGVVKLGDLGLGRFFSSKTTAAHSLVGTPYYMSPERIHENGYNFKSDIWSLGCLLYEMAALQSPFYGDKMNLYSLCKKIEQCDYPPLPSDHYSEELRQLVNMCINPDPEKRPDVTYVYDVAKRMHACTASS
# T3 sequence (P37173 23-567): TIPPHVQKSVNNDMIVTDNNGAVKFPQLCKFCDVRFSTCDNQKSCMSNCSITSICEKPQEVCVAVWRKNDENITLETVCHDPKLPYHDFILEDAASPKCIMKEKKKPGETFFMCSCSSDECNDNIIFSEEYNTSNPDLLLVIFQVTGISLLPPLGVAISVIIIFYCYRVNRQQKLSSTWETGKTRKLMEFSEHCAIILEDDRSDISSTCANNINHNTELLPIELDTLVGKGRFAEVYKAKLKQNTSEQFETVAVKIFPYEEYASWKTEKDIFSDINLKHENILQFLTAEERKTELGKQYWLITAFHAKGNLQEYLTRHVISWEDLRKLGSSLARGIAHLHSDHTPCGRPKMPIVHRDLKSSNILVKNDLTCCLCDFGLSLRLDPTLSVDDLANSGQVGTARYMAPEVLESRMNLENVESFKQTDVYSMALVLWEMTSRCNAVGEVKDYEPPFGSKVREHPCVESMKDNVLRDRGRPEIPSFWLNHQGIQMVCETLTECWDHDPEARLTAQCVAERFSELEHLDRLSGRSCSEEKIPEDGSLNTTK
# T8 sequence (Q9H4A3 whole entry): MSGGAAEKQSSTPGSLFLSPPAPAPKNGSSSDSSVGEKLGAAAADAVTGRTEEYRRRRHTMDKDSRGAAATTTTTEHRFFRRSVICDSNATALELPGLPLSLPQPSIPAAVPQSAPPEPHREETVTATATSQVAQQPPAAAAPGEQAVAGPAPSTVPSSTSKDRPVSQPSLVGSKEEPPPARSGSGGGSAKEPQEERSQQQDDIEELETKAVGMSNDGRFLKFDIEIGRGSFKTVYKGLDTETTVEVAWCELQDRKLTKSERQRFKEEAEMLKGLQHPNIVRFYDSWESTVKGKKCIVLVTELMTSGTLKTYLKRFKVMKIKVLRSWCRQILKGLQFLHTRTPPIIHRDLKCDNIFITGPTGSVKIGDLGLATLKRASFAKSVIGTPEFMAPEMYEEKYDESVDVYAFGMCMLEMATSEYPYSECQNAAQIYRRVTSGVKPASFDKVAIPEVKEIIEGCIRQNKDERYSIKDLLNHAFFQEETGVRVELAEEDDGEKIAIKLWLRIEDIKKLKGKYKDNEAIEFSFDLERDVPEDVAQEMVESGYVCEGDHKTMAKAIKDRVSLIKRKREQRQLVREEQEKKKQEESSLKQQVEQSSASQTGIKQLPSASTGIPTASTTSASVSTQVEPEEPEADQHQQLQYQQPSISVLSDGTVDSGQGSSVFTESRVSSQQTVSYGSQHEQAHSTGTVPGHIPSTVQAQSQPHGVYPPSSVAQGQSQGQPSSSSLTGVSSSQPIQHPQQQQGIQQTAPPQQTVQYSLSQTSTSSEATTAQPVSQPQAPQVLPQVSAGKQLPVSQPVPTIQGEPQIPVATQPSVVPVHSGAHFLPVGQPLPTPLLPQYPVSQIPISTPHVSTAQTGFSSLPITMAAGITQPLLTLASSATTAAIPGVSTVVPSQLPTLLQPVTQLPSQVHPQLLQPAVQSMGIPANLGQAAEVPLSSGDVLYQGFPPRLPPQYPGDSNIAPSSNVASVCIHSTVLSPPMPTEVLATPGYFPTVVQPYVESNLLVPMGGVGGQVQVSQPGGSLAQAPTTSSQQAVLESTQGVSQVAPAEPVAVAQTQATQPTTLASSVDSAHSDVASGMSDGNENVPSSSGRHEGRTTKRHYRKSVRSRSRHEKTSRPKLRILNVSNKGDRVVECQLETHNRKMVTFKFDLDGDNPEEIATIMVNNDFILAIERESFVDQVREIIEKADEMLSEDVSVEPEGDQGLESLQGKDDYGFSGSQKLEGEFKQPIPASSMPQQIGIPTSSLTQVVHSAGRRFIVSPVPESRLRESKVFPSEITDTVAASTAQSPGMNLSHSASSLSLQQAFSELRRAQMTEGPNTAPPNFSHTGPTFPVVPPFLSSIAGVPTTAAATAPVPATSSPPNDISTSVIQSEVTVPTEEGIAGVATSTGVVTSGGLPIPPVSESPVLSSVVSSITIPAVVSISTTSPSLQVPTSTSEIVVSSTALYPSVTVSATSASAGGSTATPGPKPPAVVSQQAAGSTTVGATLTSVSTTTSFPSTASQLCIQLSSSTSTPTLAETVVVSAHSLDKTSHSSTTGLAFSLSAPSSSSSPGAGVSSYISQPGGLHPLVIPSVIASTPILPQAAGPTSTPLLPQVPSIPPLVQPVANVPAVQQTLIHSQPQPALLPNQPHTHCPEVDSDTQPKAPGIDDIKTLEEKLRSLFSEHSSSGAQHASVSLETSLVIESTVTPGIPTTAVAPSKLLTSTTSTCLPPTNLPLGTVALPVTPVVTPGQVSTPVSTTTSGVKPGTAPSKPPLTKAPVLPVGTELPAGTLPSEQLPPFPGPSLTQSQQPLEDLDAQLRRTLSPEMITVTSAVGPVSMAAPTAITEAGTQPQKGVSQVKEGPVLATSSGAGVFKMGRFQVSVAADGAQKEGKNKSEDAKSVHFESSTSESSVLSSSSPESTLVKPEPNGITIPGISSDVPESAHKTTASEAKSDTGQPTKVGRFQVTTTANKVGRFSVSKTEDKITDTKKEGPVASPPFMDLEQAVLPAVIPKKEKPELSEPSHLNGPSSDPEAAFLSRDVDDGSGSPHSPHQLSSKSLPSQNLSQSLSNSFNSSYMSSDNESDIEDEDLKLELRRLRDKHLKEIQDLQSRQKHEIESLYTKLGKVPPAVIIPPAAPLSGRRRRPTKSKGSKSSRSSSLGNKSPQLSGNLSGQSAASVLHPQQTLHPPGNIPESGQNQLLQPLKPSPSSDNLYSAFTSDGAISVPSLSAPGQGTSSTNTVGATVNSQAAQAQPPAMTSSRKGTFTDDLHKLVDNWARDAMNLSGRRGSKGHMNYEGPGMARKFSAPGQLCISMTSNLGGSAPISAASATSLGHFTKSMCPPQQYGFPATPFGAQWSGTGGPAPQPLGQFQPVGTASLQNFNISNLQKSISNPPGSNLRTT
smiles,measurement,setting,value
CNC(=O)c1ccc2c(c1)C(=O)c1ccc(Nc3ccc(F)c(NC(=O)C4CC4)c3)cc1CC2 [Compound 2015],remaining activity at 0.2 µM,"[1]; 0.2 µM 2015, read-out: IKKalpha residual activity",97.6%
same,remaining activity at 1 µM,"[1]; 1 µM 2015, read-out: IKKalpha residual activity",92%
same,remaining activity at 0.2 µM,"[1]; IKKalpha, 0.2 µM, read-out: residual activity",97.6%
same,remaining activity at 1 µM,"[1]; IKKalpha, 1 µM, read-out: residual activity",92%
same,remaining activity at 0.2 µM,"[2]; 0.2 µM 2015, read-out: NEK7 residual activity",119%
same,remaining activity at 1 µM,"[2]; 1 µM 2015, read-out: NEK7 residual activity",110%
same,remaining activity at 0.2 µM,"[2]; NEK7, 0.2 µM, read-out: residual activity",119%
same,remaining activity at 0.2 µM,"[3]; 0.2 µM 2015, read-out: TGFBR2 residual activity",78.4%
same,remaining activity at 1 µM,"[3]; 1 µM 2015, read-out: TGFBR2 residual activity",76.8%
same,remaining activity at 0.2 µM,"[3]; TGFBR2, 0.2 µM, read-out: residual activity",78.3%
same,remaining activity at 1 µM,"[3]; TGFBR2, 1 µM, read-out: residual activity",76.8%
same,remaining activity at 0.2 µM,"[4]; 0.2 µM 2015, read-out: CDK5/p25NCK residual activity",110%
same,remaining activity at 0.2 µM,"[4]; 0.2 µM 2015, read-out: CDK5/p35NCK residual activity",114%
same,remaining activity at 1 µM,"[4]; 1 µM 2015, read-out: CDK5/p25NCK residual activity",100%
same,remaining activity at 1 µM,"[4]; 1 µM 2015, read-out: CDK5/p35NCK residual activity",103%
same,remaining activity at 0.2 µM,"[4]; CDK5/p25NCK, 0.2 µM, read-out: residual activity",110%
same,remaining activity at 1 µM,"[4]; CDK5/p25NCK, 1 µM, read-out: residual activity",100%
same,remaining activity at 0.2 µM,"[4]; CDK5/p35NCK, 0.2 µM, read-out: residual activity",114%
same,remaining activity at 1 µM,"[4]; CDK5/p35NCK, 1 µM, read-out: residual activity",103%
same,remaining activity at 0.2 µM,"[5]; 0.2 µM 2015, read-out: TIE2 residual activity",120%
same,remaining activity at 1 µM,"[5]; 1 µM 2015, read-out: TIE2 residual activity",90.4%
same,remaining activity at 0.2 µM,"[5]; TIE2, 0.2 µM, read-out: residual activity",120%
same,remaining activity at 1 µM,"[5]; TIE2, 1 µM, read-out: residual activity",90.5%
same,remaining activity at 0.2 µM,"[6]; 0.2 µM 2015, read-out: MARK2 residual activity",101%
same,remaining activity at 1 µM,"[6]; 1 µM 2015, read-out: MARK2 residual activity",99.5%
same,remaining activity at 0.2 µM,"[6]; MARK2, 0.2 µM, read-out: residual activity",101%
same,remaining activity at 1 µM,"[6]; MARK2, 1 µM, read-out: residual activity",99.5%
same,remaining activity at 0.2 µM,"[7]; 0.2 µM 2015, read-out: TRKC residual activity",104%
same,remaining activity at 1 µM,"[7]; 1 µM 2015, read-out: TRKC residual activity",94.3%
same,remaining activity at 0.2 µM,"[7]; TRKC, 0.2 µM, read-out: residual activity",104%
same,remaining activity at 1 µM,"[7]; TRKC, 1 µM, read-out: residual activity",94.3%
same,remaining activity at 0.2 µM,"[8]; 0.2 µM 2015, read-out: WNK1 residual activity",95%
same,remaining activity at 1 µM,"[8]; 1 µM 2015, read-out: WNK1 residual activity",91.4%
same,remaining activity at 0.2 µM,"[8]; WNK1, 0.2 µM, read-out: residual activity",95%
same,remaining activity at 1 µM,"[8]; WNK1, 1 µM, read-out: residual activity",91.4%
same,remaining activity at 0.2 µM,"[9]; 0.2 µM 2015, read-out: MST4 residual activity",78.4%
same,remaining activity at 1 µM,"[9]; 1 µM 2015, read-out: MST4 residual activity",69.9%
same,remaining activity at 0.2 µM,"[9]; MST4, 0.2 µM, read-out: residual activity",78.3%
same,remaining activity at 1 µM,"[9]; MST4, 1 µM, read-out: residual activity",69.9%
same,remaining activity at 0.2 µM,"[10]; 0.2 µM 2015, read-out: BMX residual activity",96.3%
same,remaining activity at 1 µM,"[10]; 1 µM 2015, read-out: BMX residual activity",86.5%
same,remaining activity at 0.2 µM,"[10]; BMX, 0.2 µM, read-out: residual activity",96.3%
same,remaining activity at 1 µM,"[10]; BMX, 1 µM, read-out: residual activity",86.5%
